# Measurements from patent US20240210394A1, “MICROORGANISM CAPTURE FROM ANTIMICROBIAL-CONTAINING SOLUTION” (MOMENTUM BIOSCIENCE LIMITED, priority 2019, published 2024).
# Key:
# E. coli [1] = assay: Blood culture time to positivity (flip time), bead rescue vs no-rescue control; type: cell-based; settings: Meropenem 49 mg/L blood; for Flip time: Bead rescue; for Flip time in Days: Control (FA plus bottle)
# Experimental: (§1) Day 1: Prepare overnight culture of test organism in blood/broth medium (50:50 blood:broth) and incubate at 37° C. in a shaking incubator.
# Day 2: Prepare ten-fold serial dilution of overnight culture in blood/broth as required and incubate at 37° C. for 2 h for outgrowth.
# Add 5 mL of spiked blood+beads (set 1) and 5 mL of spiked blood/Abx+beads (set 3) to blood culture bottles (BioMerieux SA culture bottle) using a vial adapter (West Pharmaceutical Services, Inc. PA, US).
# Remove the adaptor and incubate the blood culture bottles in the automated blood culture cabinet (BacT/ALERT BioMerieux) for up to 5 days.
# (§2) Record the “Flip” time of each bottle or bottle result at the end of 5 days incubation. The “Flip” time is when a bottle turns positive as determined by the automated blood culture cabinet, which records time to positivity.
# (§3) Day 1: Prepare overnight culture of test organism in blood/broth medium (50:50 blood:broth) and incubate at 37° C. (or 30° C. for C. neoformans) in a shaking incubator.
# (or 30° C. for C. neoformans) for 2 h for outgrowth. • Antibiotic added to whole blood (defibrinated horse blood) at required level • Whole blood as no-antibiotic control • Test dilution(s) of organism added to blood+antibiotic or blood only at 10 μL per mL of blood (sufficient prepared for experiment requirements) • 100 μL plate count sample taken (TO sample) • 2-hour incubation (static) at 37° C. (or 30° C. for C. neoformans) • 100 μL plate count sample taken (T2 sample) • 5 mL of spiked blood+abx or blood only added to blood culture bottle (using vial adapter) and incubation started (adapter removed) • 5 mL of spiked blood+abx or blood only (from same source) treated with Momentum Capture Beads as below: • 1. Capture Beads diluted in the relevant Capture Reagent—50 μL beads:700 μL capture reagent per clean-up • 2. 750 μL of diluted beads added to 50 mL conical centrifuge tube • 3. 5 mL of transfer medium added to tube • 4. 5 mL of spiked blood+abx or blood only added to tube • 5. […] Magnetise on V&P magnet for 10 min then remove supernatant • 7. Resuspend beads in 1 mL Detergent-free Wash Buffer (DWB) off magnet and transfer to 2 mL Eppendorf flip-top tube on DynaMag-2 magnet • 8. Magnetise for 3 min then remove supernatant • 9. Resuspend beads in 1 mL Detergent-free Wash Buffer (DWB) off magnet then replace on DynaMag-2 magnet • 10. Magnetise for 3 min then remove supernatant • 11. Resuspend beads in 1 mL DWB, add to new blood culture bottle (using vial adapter) and start incubation (adapter removed)
# Momentum Capture Beads diluted in the relevant Capture Reagent—50 μL beads:700 μL capture reagent per clean-up • 2. 750 μL of diluted beads added to 50 mL conical centrifuge tube • 3. 5 mL of transfer medium added to tube • 4. 5 mL of spiked blood+abx or blood only added to tube • 5. […] Magnetise on V&P magnet for 10 min then remove supernatant • 7. Resuspend beads in 1 mL Detergent-free Wash Buffer (DWB) off magnet and transfer to 2 mL Eppendorf flip-top tube on DynaMag-2 magnet • 8. Magnetise for 3 min then remove supernatant • 9. Resuspend beads in 1 mL Detergent-free Wash Buffer (DWB) off magnet then replace on DynaMag-2 magnet • 10. Magnetise for 3 min then remove supernatant • 11. Resuspend beads in 1 mL DWB, add to an unused blood culture bottle (BioMerieux FA+culture bottle) using vial adapter and start incubation (adapter removed)
# Klebsiella pneumoniae [2] = assay: as above; type: cell-based; settings: Meropenem 49 mg/L blood; for Flip time: Bead rescue; for Flip time in Days: Control (FA plus bottle)
# Experimental: as §3
# (§4) (or 30° C. for C. neoformans) for 2 h for outgrowth. • Antibiotic added to whole blood (defibrinated horse blood) at required level • Whole blood as no-antibiotic control • Test dilution(s) of organism added to blood+antibiotic or blood only at 10 μL per mL of blood (sufficient prepared for experiment requirements) • 100 μL plate count sample taken (TO sample) • 2-hour incubation (static) at 37° C. (or 30° C. for C. neoformans) • 100 μL plate count sample taken (T2 sample) • 5 mL of spiked blood+abx or blood only added to blood culture bottle (using vial adapter) and incubation started (adapter removed) • 5 mL of spiked blood+abx or blood only (from same source) treated with Momentum Capture Beads as below: • 1. Capture Beads diluted in the relevant Capture Reagent—50 μL beads:700 μL capture reagent per clean-up • 2. 750 μL of diluted beads added to 50 mL conical centrifuge tube • 3. 5 mL of transfer medium added to tube • 4. 5 mL of spiked blood+abx or blood only added to tube • 5. Incubate on ITL TherMix (32.5° C./30 min/1000 rpm—ramped speed protocol) • 6. Magnetise on V&P magnet for 10 min then remove supernatant • 7. Resuspend beads in 1 mL Detergent-free Wash Buffer (DWB) off magnet and transfer to 2 mL Eppendorf flip-top tube on DynaMag-2 magnet • 8. Magnetise for 3 min then remove supernatant • 9. Resuspend beads in 1 mL Detergent-free Wash Buffer (DWB) off magnet then replace on DynaMag-2 magnet • 10. Magnetise for 3 min then remove supernatant • 11. Resuspend beads in 1 mL DWB, add to new blood culture bottle (using vial adapter) and start incubation (adapter removed)
# as §2, §1
# (§5) Momentum Capture Beads diluted in the relevant Capture Reagent—50 μL beads:700 μL capture reagent per clean-up • 2. 750 μL of diluted beads added to 50 mL conical centrifuge tube • 3. 5 mL of transfer medium added to tube • 4. 5 mL of spiked blood+abx or blood only added to tube • 5. Incubate on ITL TherMix (32.5° C./30 min/1000 rpm—ramped speed protocol) • 6. Magnetise on V&P magnet for 10 min then remove supernatant • 7. Resuspend beads in 1 mL Detergent-free Wash Buffer (DWB) off magnet and transfer to 2 mL Eppendorf flip-top tube on DynaMag-2 magnet • 8. Magnetise for 3 min then remove supernatant • 9. Resuspend beads in 1 mL Detergent-free Wash Buffer (DWB) off magnet then replace on DynaMag-2 magnet • 10. Magnetise for 3 min then remove supernatant • 11. Resuspend beads in 1 mL DWB, add to an unused blood culture bottle (BioMerieux FA+culture bottle) using vial adapter and start incubation (adapter removed)
# Pseudomonas aeruginosa [3] = assay: as above; type: cell-based; settings: Meropenem 49 mg/L blood
# Experimental: as §3, §4, §2, §1, §5
# E. coli [4] = settings: cited from earlier work
# Klebsiella pneumoniae [5] = settings: K. pneumoniae; cited from earlier work
# Pseudomonas aeruginosa [6] = settings: P. aeruginosa; cited from earlier work
smiles,measurement,setting,value
C[C@@H](O)[C@H]1C(=O)N2C(C(=O)O)=C(S[C@@H]3CN[C@H](C(=O)N(C)C)C3)[C@H](C)[C@H]12 [Meropenem],Flip time,E. coli [1]; 900 cfu/5 mL blood,0.56 days
same,Flip time,E. coli [1]; 150000 cfu/5 mL blood,0.46 days
same,Flip time,E. coli [1]; 1500000 cfu/5 mL blood,0.43 days
same,Flip time in Days,E. coli [1]; 900 cfu/5 mL blood,Neg
same,Flip time in Days,E. coli [1]; 150000 cfu/5 mL blood,Neg
same,Flip time in Days,E. coli [1]; 1500000 cfu/5 mL blood,Neg
same,Flip time,Klebsiella pneumoniae [2]; 125000 cfu/5 mL blood,0.43 days
same,Flip time,Klebsiella pneumoniae [2]; 1250000 cfu/5 mL blood,0.38 days
same,Flip time in Days,Klebsiella pneumoniae [2]; 125000 cfu/5 mL blood,Neg
same,Flip time in Days,Klebsiella pneumoniae [2]; 1250000 cfu/5 mL blood,Neg
same,Flip time,"Pseudomonas aeruginosa [3]; Bead rescue, 1250 cfu/5 mL blood",0.81 days
same,Flip time,"Pseudomonas aeruginosa [3]; Bead rescue, 200000 cfu/5 mL blood",0.54 days
same,Flip time,"Pseudomonas aeruginosa [3]; Bead rescue, 2000000 cfu/5 mL blood",0.46 days
same,Flip time in Days,"Pseudomonas aeruginosa [3]; Control (FA plus bottle), 1250 cfu/5 mL blood",Neg
same,Flip time,"Pseudomonas aeruginosa [3]; Control (FA plus bottle), 200000 cfu/5 mL blood",0.9 days
same,Flip time,"Pseudomonas aeruginosa [3]; Control (FA plus bottle), 2000000 cfu/5 mL blood",0.81 days
same,MIC,E. coli [4],≤1 µg/mL
same,MIC,Klebsiella pneumoniae [5],≤1 µg/mL
same,MIC,Pseudomonas aeruginosa [6],≤1 µg/mL
